In PubChem BioAssay AID2060603 (Molecular Pharmacology Branch, DTP, NCI, 2025):
Where “and” joins values, the source holds several entries; their conditions need not be identical. Identical values can stand only once.

Test system: 422866-222-R5-J1-PDC spheroid viability
Test: Anticancer human tumor 422866-222-R5-J1-PDC patient-derived pancreatic adenocarcinoma cell line growth inhibition [CLK]
Conditions: spheroids with HUVEC and MSC; for viability, T/C: stronger effect = lower value
How it was run: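 Multi-cell-type spheroids combined patient-derived tumor cells with HUVEC endothelial cells and human mesenchymal stem cells. Paired agents were dosed in half-log steps down from about clinical Cmax, or from 10 microM where Cmax was unknown.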

[1] = curve of first compound, second compound 0.0316 µM
[2] = curve of first compound, second compound 0.1 µM
[3] = curve of first compound, second compound 0.316 µM
[4] = curve of first compound, second compound 1 µM
[5] = curve of first compound, second compound 3.16 µM
[6] = curve of first compound, second compound 10 µM
[7] = second compound 0.0316 µM, first compound 0.0316 µM
[8] = second compound 0.0316 µM, first compound 0.1 µM
[9] = second compound 0.1 µM, first compound 0.0316 µM
[10] = second compound 0.1 µM, first compound 0.1 µM
[11] = second compound 0.316 µM, first compound 0.0316 µM
[12] = second compound 0.316 µM, first compound 0.1 µM
[13] = second compound 1 µM, first compound 0.0316 µM
[14] = second compound 1 µM, first compound 0.1 µM
[15] = second compound 3.16 µM, first compound 0.0316 µM
[16] = second compound 3.16 µM, first compound 0.1 µM
[17] = second compound 10 µM, first compound 0.0316 µM
[18] = second compound 10 µM, first compound 0.1 µM
[19] = second compound 0.0316 µM, first compound 0.316 µM
[20] = second compound 0.0316 µM, first compound 1 µM
[21] = second compound 0.0316 µM, first compound 3.16 µM
[22] = second compound 0.0316 µM, first compound 10 µM
[23] = second compound 0.1 µM, first compound 0.316 µM
[24] = second compound 0.1 µM, first compound 1 µM
[25] = second compound 0.1 µM, first compound 3.16 µM
[26] = second compound 0.1 µM, first compound 10 µM
[27] = second compound 0.316 µM, first compound 0.316 µM
[28] = second compound 0.316 µM, first compound 1 µM
[29] = second compound 0.316 µM, first compound 3.16 µM
[30] = second compound 0.316 µM, first compound 10 µM
[31] = second compound 1 µM, first compound 0.316 µM
[32] = second compound 1 µM, first compound 1 µM
[33] = second compound 1 µM, first compound 3.16 µM
[34] = second compound 1 µM, first compound 10 µM
[35] = second compound 3.16 µM, first compound 0.316 µM
[36] = second compound 3.16 µM, first compound 1 µM
[37] = second compound 3.16 µM, first compound 3.16 µM
[38] = second compound 3.16 µM, first compound 10 µM
[39] = second compound 10 µM, first compound 0.316 µM
[40] = second compound 10 µM, first compound 1 µM
[41] = second compound 10 µM, first compound 3.16 µM
[42] = second compound 10 µM, first compound 10 µM
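Also: spheroids exposed to agents for seven days before readout.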

Cn1ncnc1[C@H]1c2n[nH]c(=O)c3cc(F)cc(c23)N[C@@H]1c1ccc(F)cc1 + CNC(=O)c1ccc(Nc2nc(OC3CCCC3)c3c(-c4ccc5nc(C)oc5c4)c[nH]c3n2)c(OC)c1
IC50 [1]: > 100 nM | IC50 [2]: > 100 nM | IC50 [3]: > 100 nM | IC50 [4]: > 100 nM | IC50 [5]: > 100 nM | IC50 [6]: > 100 nM | viability, T/C (second compound 0.0316 µM, first compound 0.000316 µM): 105% | viability, T/C (second compound 0.0316 µM, first compound 0.001 µM): 112% | viability, T/C (second compound 0.0316 µM, first compound 0.00316 µM): 102% | viability, T/C (second compound 0.0316 µM, first compound 0.01 µM): 91.2% | viability, T/C [7]: 89.6% | viability, T/C [8]: 78.6% | viability, T/C (second compound 0.1 µM, first compound 0.000316 µM): 98.8% | viability, T/C (second compound 0.1 µM, first compound 0.001 µM): 91% | viability, T/C (second compound 0.1 µM, first compound 0.00316 µM): 84.2% | viability, T/C (second compound 0.1 µM, first compound 0.01 µM): 89.8% | viability, T/C [9]: 74.8% | viability, T/C [10]: 83.8% | viability, T/C (second compound 0.316 µM, first compound 0.000316 µM): 84.8% | viability, T/C (second compound 0.316 µM, first compound 0.001 µM): 75.2% | viability, T/C (second compound 0.316 µM, first compound 0.00316 µM): 66.3% | viability, T/C (second compound 0.316 µM, first compound 0.01 µM): 68% | viability, T/C [11]: 80.9% | viability, T/C [12]: 64.7% | viability, T/C (second compound 1 µM, first compound 0.000316 µM): 75.8% | viability, T/C (second compound 1 µM, first compound 0.001 µM): 65% | viability, T/C (second compound 1 µM, first compound 0.00316 µM): 63.7% | viability, T/C (second compound 1 µM, first compound 0.01 µM): 52.4% | viability, T/C [13]: 52.4% | viability, T/C [14]: 54.6% | viability, T/C (second compound 3.16 µM, first compound 0.000316 µM): 61.9% | viability, T/C (second compound 3.16 µM, first compound 0.001 µM): 73.8% | viability, T/C (second compound 3.16 µM, first compound 0.00316 µM): 60.1% | viability, T/C (second compound 3.16 µM, first compound 0.01 µM): 54.3% | viability, T/C [15]: 53.8% | viability, T/C [16]: 52% | viability, T/C (second compound 10 µM, first compound 0.000316 µM): 61.8% | viability, T/C (second compound 10 µM, first compound 0.001 µM): 59.6% | viability, T/C (second compound 10 µM, first compound 0.00316 µM): 55.9% | viability, T/C (second compound 10 µM, first compound 0.01 µM): 48.6% | viability, T/C [17]: 65% | viability, T/C [18]: 71.9%

Nc1ccn(C2OC(CO)C(O)C2(F)F)c(=O)n1 (stereo not given) + CNC(=O)c1ccc(Nc2nc(OC3CCCC3)c3c(-c4ccc5nc(C)oc5c4)c[nH]c3n2)c(OC)c1
IC50 [1]: 939 nM | IC50 [2]: 125 nM | IC50 [3]: 86 nM | IC50 [4]: 119 nM | IC50 [5]: 158 nM | IC50 [6]: 72.4 nM | viability, T/C [7]: 61.4% | viability, T/C [8]: 57.8% | viability, T/C [19]: 53.7% | viability, T/C [20]: 50% | viability, T/C [21]: 45.3% | viability, T/C [22]: 39.6% | viability, T/C [9]: 90.4% | viability, T/C [10]: 50.8% | viability, T/C [23]: 44.9% | viability, T/C [24]: 46.1% | viability, T/C [25]: 36.3% | viability, T/C [26]: 42.1% | viability, T/C [11]: 73.8% | viability, T/C [12]: 46.7% | viability, T/C [27]: 37.8% | viability, T/C [28]: 40.6% | viability, T/C [29]: 36% | viability, T/C [30]: 37.5% | viability, T/C [13]: 69.8% | viability, T/C [14]: 51.4% | viability, T/C [31]: 42.8% | viability, T/C [32]: 32.2% | viability, T/C [33]: 39.2% | viability, T/C [34]: 43.8% | viability, T/C [15]: 55.2% | viability, T/C [16]: 60.7% | viability, T/C [35]: 42.1% | viability, T/C [36]: 40.4% | viability, T/C [37]: 33.7% | viability, T/C [38]: 34.1% | viability, T/C [17]: 67.8% | viability, T/C [18]: 42.9% | viability, T/C [39]: 40.3% | viability, T/C [40]: 33.7% | viability, T/C [41]: 39.2% | viability, T/C [42]: 40.6%

CC1COCCN1c1cc(C2(S(C)(=N)=O)CC2)nc(-c2ccnc3[nH]ccc23)n1 (stereo not given)
viability, T/C (compound 0.0316 µM): 94.6% and 88.6% | viability, T/C (compound 0.1 µM): 92.4% and 94.7% | viability, T/C (compound 0.316 µM): 97.3% and 95.7% | viability, T/C (compound 1 µM): 94.2% and 94.3% | viability, T/C (compound 3.16 µM): 66.9% and 58.5% | viability, T/C (compound 10 µM): 54.5% and 47.8% | IC50 (curve of compound): > 10000 nM and 7890 nM

NC(=O)C(=Cn1cnc(-c2cc(C(F)(F)F)cc(C(F)(F)F)c2)n1)c1cncnc1
viability, T/C (compound 0.00949 µM): 95.7% and 97.4% | viability, T/C (compound 0.03 µM): 103% and 84% | viability, T/C (compound 0.0949 µM): 86.1% and 81.5% | viability, T/C (compound 0.3 µM): 72.6% and 58.2% | viability, T/C (compound 0.949 µM): 89.1% and 92.3% | viability, T/C (compound 3 µM): 76.9% and 76.2% | IC50 (curve of compound): > 3000 nM

CC1(C)CCC(CN2CCN(c3ccc(C(=O)NS(=O)(=O)c4ccc(NCC5CCOCC5)c([N+](=O)[O-])c4)c(Oc4cnc5[nH]ccc5c4)c3)CC2)=C(c2ccc(Cl)cc2)C1 + CN1CCN(c2cc(C(=O)Nc3cc4cc(-c5cnn(C)c5)ccc4cn3)ccn2)CC1
IC50 [1]: > 10000 nM | IC50 [2]: > 10000 nM | IC50 [3]: 7960 nM | IC50 [4]: < 31.6 nM | IC50 [5]: < 31.6 nM | IC50 [6]: < 31.6 nM | viability, T/C [7]: 105% | viability, T/C [8]: 104% | viability, T/C [19]: 101% | viability, T/C [20]: 115% | viability, T/C [21]: 113% | viability, T/C [22]: 69.3% | viability, T/C [9]: 111% | viability, T/C [10]: 117% | viability, T/C [23]: 105% | viability, T/C [24]: 109% | viability, T/C [25]: 95.8% | viability, T/C [26]: 58.3% | viability, T/C [11]: 89.2% | viability, T/C [12]: 107% | viability, T/C [27]: 96.5% | viability, T/C [28]: 91.2% | viability, T/C [29]: 91.9% | viability, T/C [30]: 39.6% | viability, T/C [13]: 26.1% | viability, T/C [14]: 26.1% | viability, T/C [31]: 22.1% | viability, T/C [32]: 27.5% | viability, T/C [33]: 25.1% | viability, T/C [34]: 12.1% | viability, T/C [15]: 11.2% | viability, T/C [16]: 10.1% | viability, T/C [35]: 8.93% | viability, T/C [36]: 9.29% | viability, T/C [37]: 8.57% | viability, T/C [38]: 0.67% | viability, T/C [17]: 3.46% | viability, T/C [18]: 3.09% | viability, T/C [39]: 2.86% | viability, T/C [40]: 1.74% | viability, T/C [41]: 2.12% | viability, T/C [42]: 1.57%
